In brackets after ≈: the same amount, converted by molar mass.

Data set [1] concerns Staphylococcus. Put plainly: Ratio of drug level in patient serum with bone and joint infection to MIC90 for drug-susceptible Staphylococci.
Data set [2] concerns Staphylococcus. The data set is described as follows: Antimicrobial activity against methicillin-susceptible Staphylococcus. In kind it is functional.
The next data set concerns Streptococcus. The data set is described as follows: Antimicrobial activity against Streptococcus. In kind it is functional.
The subject of another data set is Nucleic Acid. The data set is described as follows: Ratio of drug level in patient bone with bone and joint infection to MIC90 for drug-susceptible Staphylococci. In kind it is functional.
Data set [3] can be described thus: Ratio of drug level in bone to serum in patient with bone and joint infection at 60 to 80 mg/kg/day, iv administered as continuous infusion for 42 days. In kind it is ADME, organism-based. The arrangement: route intravenous. The settings on record: human.
Data set [4] is described as follows: Drug level in patient serum with bone and joint infection at 60 to 80 mg/kg/day, iv administered as continuous infusion for 42 days measured from day 2 to 10 by agar disk diffusion assay. In kind it is ADME, organism-based. Details: route intravenous. The settings on record: human, read-out: Drug uptake.
Data set [5] in a line: Drug level in patient serum with bone and joint infection at 60 to 80 mg/kg/day, iv administered as continuous infusion for 42 days measured from day 11 to 21 by agar disk diffusion assay. In kind it is ADME, organism-based. Details: route intravenous. The note with it: human, read-out: Drug uptake.
The nature of data set [6]: Drug level in patient bone with bone and joint infection measured per gram of tissue at 60 to 80 mg/kg/day, iv administered as continuous infusion for 42 days measured on day 7 by agar disk diffusion assay. In kind it is ADME, organism-based, Bone element. The arrangement: route intravenous. The note with it: human, in vivo, 1008 h.
The next data set concerns Bacillus pumilus. Put plainly: Antimicrobial activity against Bacillus pumilus SJ1554. The format is functional.

For `Cc1nnc(SCC2=C(C(=O)O)N3C(=O)[C@@H](NC(=O)Cn4cnnn4)[C@H]3SC2)s1` [CEFAZOLIN], the Ratio in the data set with Staphylococcus [1] amounted to 60.8; in the data set with Nucleic Acid, 5. Further, the results for the MIC90 with Staphylococcus [2] and in the data set on Streptococcus were 1 µg/mL (≈ 2.2 µM) and 0.1 µg/mL (≈ 0.22 µM), respectively. Besides, the Kp at 1008 h in data set [3] turned out to be 0.25. For the same molecule, the results for the concentration at 1008 h in data set [4] and in [5] were 63 µg/mL and 57 µg/mL, respectively. In data set [6], the bone concentration amounted to 13.5 µg/g.
Consider `C[C@@H]1O[C@@H]1P(=O)(O)O` [FOSFOMYCIN], for which the MIC with Bacillus pumilus is above 512 µg/mL.
Regarding `CO[C@H]1/C=C/O[C@@]2(C)Oc3c(C)c(O)c4c(O)c(c(/C=N/N5CCN(C)CC5)c(O)c4c3C2=O)NC(=O)/C(C)=C\C=C\[C@H](C)[C@H](O)[C@@H](C)[C@@H](O)[C@@H](C)[C@H](OC(C)=O)[C@@H]1C` [RIFAMPIN], the MIC against Bacillus pumilus was above 128 µg/mL.

These data come from ChEMBL document CHEMBL1629646, “Continuous cefazolin infusion to treat bone and joint infections: clinical efficacy, feasibility, safety, and serum and bone concentrations” (Antimicrob Agents Chemother, 2009).
